In US11981626B1, “Compound embodiments for hydrogen sulfide production and methods of making and using the same” (University of Oregon, priority 2018, dated 2024):

What was measured:
[1] = tested on: macrophage RAW 264.7 cells; assay: LPS-induced NO2− formation in macrophage RAW 264.7 cells (Griess); format: cell-based; conditions: 25 μM pretreatment 6 hours, LPS 1.0 μg/mL 18 hours
Protocol: In this example, the ability of embodiments of the disclosed donor compound to provide anti-inflammatory activity was evaluated. To investigate the potential protective effects of the developed donors, pretreated macrophage RAW 264.7 cells were pretreated with γ-KetoTCM-1 (25 μM) for 6 hours, followed by an 18-hour incubation with lipopolysaccharide (LPS, 1.0 μg/mL) to induce an inflammatory response. This response is accompanied by an increase in NO production, which was monitored by measuring nitrite (NO2−) accumulation. To determine whether the observed effects were due to COS/H2S release, control experiments with γ-KetoTCM-3, γ-KetoCM-1, and GYY4137 under the identical condition also were performed. GYY4137 was used as a positive control because it has shown anti-inflammatory effects previously, and because it generates a slow, continuous release of H2S.
In this example, macrophage RAW 264.7 cells were seeded in a 24-well plate (5×10^5 cells/well) containing 0.50 mL of DMEM and incubated at 37° C. under 5% CO2 for 24 hours. The confluent cells were washed with PBS and incubated with either γ-KetoTCM-1, γ-KetoTCM-3, γ-KetoCM-1, or GYY4137 (25.0 μM) at 37° C. for 6 hours. Compounds were then removed by washing cells with PBS and these pretreated cells were incubated in FBS-free DMEM containing LPS (1.00 μg/mL) for 18 hours. NO2− levels were measured by using a Griess Reagent Kit.

[2] = COS/H2S release monitored by PNA formation (UV-Vis) in PBS containing CA; format: physicochemical; conditions: for half-life at 50 μM: PBS containing carbonic anhydrase (CA); for half-life at 50 μM / kobs (COS/H2S releasing kinetics): 37° C.; for kobs (COS/H2S releasing kinetics): CA 25 μg/mL, 50 μM; for krel: relative to γ-KetoTCM-1 at pH 7.4
Protocol: To investigate COS/H2S release from donor compound embodiments, γ-KetoTCM-1 (50 μM) was incubated in PBS (pH 7.4, 10 mM) containing CA (25 μg/mL) and H2S release was detected by monitoring para-nitroaniline (PNA) formation at 37° C. In particular, a γ-KetoTCM-1 stock solution (15.0 μL, 10.0 mM in DMSO) was added to 3.00 mL of PBS (pH 6.00, 7.40 or 8.00, 10.0 mM) containing CA (25.0 μg/mL) in a quartz UV cuvette. The absorbance (250-500 nm) was measured and recorded by using Agilent Cary 100 or Cary 60 UV-Vis spectrometers at 37° C. kobs was then obtained by plotting the absorbance ratio of PNA and γ-KetoTCM-1 versus time and t1/2 was calculated by dividing In(2) by kobs.
In this example, pH effects on COS/H2S release were investigated by incubating γ-KetoTCM-1 (50 μM) in PBS (pH 6.0-8.0) and monitoring with a UV-Vis spectrometer. […] In particular, a γ-KetoTCM-1 stock solution (15.0 μL, 10.0 mM in DMSO) was added to 3.00 mL of PBS (pH 6.00, 10.0 mM) containing CA (25.0 μg/mL) in a 3-mL UV cuvette. The absorbance (250-500 nm) was measured and recorded at 37° C. kobs was then obtained by plotting the absorbance ratio of PNA and γ-KetoTCM-1 vs time.

HeLa cells = assay: H2S delivery in HeLa cells imaged with SF7-AM fluorescent probe; format: cell-based; conditions: 100 μM, 2 hours
Protocol: In this example, it was evaluated whether γ-KetoTCM-based donors can be activated to deliver H2S in cellular environments. SF7-AM, a cell-trappable H2S fluorescent probe, was used to monitor H2S accumulation from γ-KetoTCM-1 in HeLa cells. In the absence of γ-KetoTCM-1, no fluorescent signal from SF7-AM was observed, indicating negligible endogenous H2S (FIG. 9, left column, including the top and bottom images).
HeLa cells were plated in poly-D-lysine coated plates (MatTek) containing 2.00 mL of DMEM and incubated at 37° C. under 5% CO2 for 24 hours. The confluent cells were washed with PBS and then co-incubated with SF7-AM (5.00 μM) and NucBlue nuclear dye (2 drops) for 30 minutes. The cells were then washed with PBS and incubated with either γ-KetoTCM-1 (100 μM) or γ-KetoCM-1 (100 μM) alone for 2 hours. Prior to imaging, the cells were washed with PBS and bathed in 2.00 mL of PBS. Cell imaging was performed on a Leica DMi8 fluorescent microscope.

[3] = COS/H2S release monitored by PNA formation (UV-Vis) in PBS containing BSA and CA; format: physicochemical
Protocol: In this example, compound activation and subsequent COS/H2S release in PBS containing bovine serum albumin (BSA) was evaluated to mimic a complex biological environment. γ-KetoTCM-1 (50 μM) was incubated in PBS (pH 7.4, 10 mM) containing BSA (5 mg/mL) and CA (25 μg/mL) at 37° C. In particular, A γ-KetoTCM-1 stock solution (15.0 μl_, 10.0 mM in DMSO) was added to 3.00 mL of PBS (pH 7.40, 10.0 mM) containing BSA (5.00 mg/mL) and CA (25.0 μg/mL) in a quartz UV cuvette. The absorbance (250-500 nm) was measured and recorded by using an Agilent Cary 100 UV-Vis spectrometer at 37° C.

[4] = H2S production measured by methylene blue (MB) assay in PBS containing BSA and CA; format: physicochemical; conditions: 37° C.
Protocol: Using the same conditions, H2S production was measured at different time points using the MB assay (FIG. 5A, curve labeled with the “▾” symbol). The MB assay allows for H2S quantification from the reaction of H2S with N,N-dimethyl-p-phenylenediamine in the presence of FeCl3 and acid to produce methylene blue (MB, λmax=670). In the MB assay, a γ-KetoTCM-1 stock solution (100 μL, 10.0 mM in DMSO) was added to 20.0 mL of PBS (pH 7.40, 10.0 mM) containing BSA (5.00 mg/mL) and CA (25.0 μg/mL) in a 25-mL scintillation vial at 37° C. Next, 0.300 mL aliquots of the reaction mixture were transferred to UV cuvettes containing 0.300 mL of MB cocktail at different time points. The MB reaction mixture was incubated at room temperature for 1 hour and the precipitate was removed using syringe filters. The absorbance at 670 nm was then measured and was converted to H2S concentration by using the H2S calibration curve in FIG. 6. […] The MB solution was allowed to react with H2S for 1 hour before measuring the absorbance at 670 nm.
The linearity between these two methods was lost after 60 minutes due to the oxidation of H2S in the MB assay at extended incubation times (FIG. 5A). […] The absorbance at 670 nm was then measured and converted to H2S concentration by using the H2S calibration curve in FIG. 6. […]

[5] = Effects of cellular nucleophiles on COS/H2S release (PNA formation, UV-vis); format: physicochemical; conditions: PBS pH 7.4, Cys, NAC, Hcy, GSH, Lys, Ser, Gly, GSSG, 4-hour incubation, 37° C.
Protocol: To determine the effects of cellular nucleophiles on COS/H2S release, γ-KetoTCM-1 was incubated in […] PBS buffer (pH 7.4, 10 mM) containing (1) no cellular nucleophile (FIG. 4, bar 1); or 250 μM of Cys (FIG. 4, bar 2), 250 μM of N-acetyl cysteine (NAC) (FIG. 4, bar 3), 250 μM of homocysteine (Hcy) (FIG. 4, bar 4), 250 μM of GSH […] (FIG. 4, bar 5), 250 μM of lysine (Lys) (FIG. 4, bar 6), 250 μM of serine (Ser) (FIG. 4, bar 7), 250 μM of glycine (Gly) (FIG. 4, bar 8), or 250 μM of oxidized glutathione (GSSG) (FIG. 4, bar 9) at 37° C. PNA formation was monitored and recorded after a 4-hour incubation using UV-vis spectroscopy.

[6] = H2S release observed with an H2S electrode at different pH; format: physicochemical; conditions: PBS pH 6.0-8.0
Excerpt: H2S release was also observed by using an H2S electrode, confirming that H2S was released in this system and such H2S release was pH-dependent (FIGS. 3A and 3B). This example therefore establishes that COS/H2S release from compound embodiments of the present disclosure can be pH dependent.

Row | SMILES | effect on LPS-induced NO2− production [1] | half-life at 50 μM ([2]; pH 7.4, pH 7.4 PBS, ln(2)/kobs) | kobs (COS/H2S releasing kinetics) ([2]; pH 7.4 PBS) | krel ([2]; pH 7.4 PBS) | SF7-AM fluorescence (H2S accumulation) (HeLa cells) | other results
1 | C1COCCN1.COc1ccc(P(=S)(S)N2CCOCC2)cc1 (stereo not drawn) [GYY4137, reference compound] | less pronounced effect |  |  |  |  | 
2 | CC(=O)CCOC(=O)Nc1ccc([N+](=O)[O-])cc1 [γ-KetoCM-1] | reduced NO2− levels, although to a lesser extent than γ-KetoTCM-1 | 13.4 ± 0.3 h | 1.44 ± 0.03 ×10^−5 s^−1 | 0.32 | failed to provide a SF7-AM signal | 
3 | CC(=O)CCOC(=S)Nc1ccc([N+](=O)[O-])cc1 [γ-KetoTCM-1] | significantly reduced | 4.26 h | 4.52±0.02 ×10^−5 s^−1 | 1.00 | significant increase in SF7-AM fluorescence | half-life at 50 μM ([2]; pH 6, pH 6.0 PBS, ln(2)/kobs): 50.7 ± 0.8 h; half-life at 50 μM ([2]; pH 8, pH 8.0 PBS): 1.53 ± 0.03 h; kobs (COS/H2S releasing kinetics) ([2]; pH 6.0 PBS): 0.380 ± 0.006 ×10^−5 s^−1; krel ([2]; pH 6.0 PBS): 0.084; kobs (COS/H2S releasing kinetics) ([2]; pH 8.0 PBS): 12.6 ± 0.2 ×10^−5 s^−1; krel ([2]; pH 8.0 PBS): 2.79; half-life at 50 μM ([3]; PBS containing BSA and carbonic anhydrase (CA), pH 7.4 PBS containing BSA (5 mg/mL), 37° C.): 0.24 ± 0.01 h; pseudo first-order rate constant kobs from fitting the UV-vis data ([3]; PBS pH 7.4, BSA 5 mg/mL, CA, 37° C.): 8.1±0.3 ×10^−4 s^−1; kobs (COS/H2S releasing kinetics) ([3]; pH 7.4 PBS containing BSA (5 mg/mL), CA, 37° C.): 81.0 ± 3.0 ×10^−5 s^−1; krel ([3]; pH 7.4 PBS containing BSA (5 mg/mL), relative to pH 7.4 without BSA): 18.0; H2S release efficiency ([4]; MB assay, 50 μM, PBS pH 7.4, BSA): 70%; pseudo first-order rate constant kobs from fitting the MB data ([4]; PBS pH 7.4, BSA 5 mg/mL, up to plateau (~60 minutes)): 8.6±0.9 ×10^−4 s^−1; PNA formation in presence of cellular nucleophiles versus background [5]: None of the tested nucleophiles resulted in substantial PNA formation; H2S release by H2S electrode [6]: pH-dependent
4 | CC(=O)C(C)COC(=S)Nc1ccc([N+](=O)[O-])cc1 (stereo not drawn) [γ-KetoTCM-2] |  | 25.9 h | 0.82 ± 0.02 ×10^−5 s^−1 | 0.188 |  | 
5 | CC(=O)C(C)(C)COC(=S)Nc1ccc([N+](=O)[O-])cc1 [γ-KetoTCM-3] | modest reduction |  |  |  |  | PNA released in PBS buffer (indicating COS/H2S release) ([2]; PBS pH 7.4, 37° C.): negligible
